Experimental findings from patent US12692261B2, “Substituted heterocyclic compounds and therapeutic uses thereof” (Bayer Aktiengesellschaft, priority 2020, dated 2026) are described below.

Structures are written as SMILES. Read-outs that look alike come from different tables or passages of the source. A value given as a limit tells only on which side of the number the result lay.

The target in one assay is T1, full-length human CSNK1D (Homo sapiens, UniProt P48730).
T1 construct: N-terminal Glutathion-S-Transferase (GST) and full-length human CSNK1D; purchased Life Technologies PV3665; host or cells: baculovirus infected insect cells
In words: CSNK1D Assay (ADP-Glo, 1 μM ATP). In kind it is biochemical. The conditions noted are these: Table 3, read-out: CSNK1D IC50 [mol/l] (median). Here is the method: CSNK1D-inhibitory activity of compounds of the present invention in presence of 1 μM adenosine-tri-phosphate (ATP) was quantified employing the CSNK1 D assay as described in the following paragraphs. In essence, the enzyme activity is measured by quantification of the adenosine-di-phosphate (ADP), which is generated as a co-product of the enzyme reaction, via the “ADP-Glo™ Kinase Assay” kit from the company Promega. This detection system works as follows: In a first step the ATP not consumed in the kinase reaction is quantitatively converted to cAMP employing an adenylate cyclase (“ADP-Glo-reagent”), then the adenylate cyclase is stopped and the ADP generated in the kinase reaction converted to ATP which generates in a luciferase-based reaction a glow-luminescence signal (“Kinase Detection Reagent”).
Recombinant fusion protein of N-terminal Glutathion-S-Transferase (GST) and full-length human CSNK1D, expressed by baculovirus infected insect cells and purified via Glutathion affinity chromatography, was purchased from Life Technologies (product no. PV3665) and used as enzyme. As substrate for the kinase reaction the biotinylated peptide Btn-Ahx-[…] (C-terminus in amide form) was used which can be purchased e.g. from the company Biosyntan (Berlin-Buch, Germany).
For the assay 50 nl of a 100 fold concentrated solution of the test compound in DMSO was pipetted into a white 1536-well microtiter plate (Greiner Bio-One, Frickenhausen, Germany), 2 μL of a solution of CSNK1D in aqueous assay buffer [50 mM HEPES pH 7.5, 10% (v/v) glycerol, 10 mM MgCl2, 50 mM NaCl, 1 mM dithiothreitol, 0.01% (w/v) bovine serum albumin, 0.01% (v/v) Triton X-100] were added and the mixture was incubated for 15 min at 22° C. to allow pre-binding of the test compounds to the enzyme before the start of the kinase reaction. […] The concentration of CSNK1D was adjusted depending of the activity of the enzyme lot and was chosen appropriate to have the assay in the linear range, a typical concentration is about 0.5 ng/μL. The reaction was stopped by the addition of 2.5 μL of “ADP-Glo-reagent” (1:1.5 fold diluted with water) and the resulting mixture was incubated at 22° C. for 1 h to convert the ATP not consumed in the kinase reaction completely […]. Subsequently 2.5 μL of the “kinase detection reagent” (1.2 fold more concentrated than recommended by the producer) were added, the resulting mixture was incubated at 22° C. for 1 h and then the luminescence measured with a suitable measurement instrument (e.g. Viewlux™ from Perkin-Elmer). The amount of emitted light was taken as a measure for the amount of ADP generated and thereby for the activity of the CSNK1D.
On the technique in general: In ADP-Glo the light output rises with the ADP produced.

The target of assay [1] is T2, wild-type Epidermal Growth Factor Receptor (EGFR) (Homo sapiens, UniProt P00533).
T2 construct: a fragment of human EGFR (amino acids R669 to A1210); made in house; host or cells: Sf9 insect cells
In words: WT-EGFR Kinase Assay (TR-FRET, 2 mM ATP). Format: biochemical. From the text:
Inhibitory activity of compounds of the present invention against wild-type Epidermal Growth Factor Receptor (EGFR) was quantified employing the TR-FRET based EGFR assay as described in the following paragraphs.
Recombinant fusion protein of N-terminal Glutathion-S-Transferase (GST) and a fragment of human EGFR (amino acids R669 to A1210), expressed in Sf9 insect cells and purified via affinity chromatography using Glutathion Sepharose as described above, was used as kinase. As substrate for the kinase reaction the biotinylated peptide biotin-Ahx-[…] (C-terminus in amide form) was used which can be purchased e.g. form the company Biosynthan GmbH (Berlin-Buch, Germany).
For the assay 50 nl of a 100 fold concentrated solution of the test compound in DMSO was pipetted into either a black low volume 384 well microtiter plate or a black 1536 well microtiter plate (both Greiner Bio-One, Frickenhausen, Germany), 2 μL of a solution of EGFR in aqueous assay buffer [50 mM Hepes pH 7.0, 10 mM MgCl2, 1 mM dithiothreitol, 0.5 mM EGTA, 0.3 mM activated sodium ortho-vanadate, 0.005% (w/v) bovine serum albumin, 0.005% (v/v) Tween-20] were added and the mixture was incubated for 15 min at 22° C. to allow pre-binding of the test compounds to the enzyme before the start of the kinase reaction. […] The concentration of EGFR was adjusted depending of the activity of the enzyme lot and was chosen appropriate to have the assay in the linear range, typical concentration was 7.6 pg/μL. The reaction was stopped by the addition of 3 μL of a solution of HTRF detection reagents (83.3 nM streptavidine-XL665 [Cisbio Bioassays, Codolet, France] and 1.67 nM PT66-Tb-Cryptate, a terbium-cryptate labelled anti-phospho-tyrosine antibody from Cisbio Bioassays [instead of the PT66-Tb-cryptate PT66-Eu-Chelate from Perkin Elmer can also be used]) in an aqueous EDTA-solution (133.3 mM EDTA, 0.2% (w/v) bovine serum albumin in 50 mM HEPES pH 7.5).
The resulting mixture was incubated 1 h at 22° C. to allow the binding of the biotinylated phosphorylated peptide to the streptavidine-XL665 and the PT66-Tb-Cryptate. Subsequently the amount of phosphorylated substrate was evaluated by measurement of the resonance energy transfer from the PT66-Tb-Cryptate to the streptavidine-XL665. Therefore, the fluorescence emissions at 620 nm and 665 nm after excitation at 337 nm were measured in a HTRF reader, e.g. a Pherastar (BMG Labtechnologies, Offenburg, Germany) or a Viewlux (Perkin-Elmer). The ratio of the emissions at 665 nm and at 622 nm was taken as the measure for the amount of phosphorylated substrate.

Setting [2] is: EGFR Wildtyp 2 mM ATP IC50 [mol/l] (median), Table 4.
Setting [3] is: read-out: EGFR Wildtyp 2 mM ATP IC50 [mol/l] (median), Table 4.

T1 sequence (P48730 whole entry): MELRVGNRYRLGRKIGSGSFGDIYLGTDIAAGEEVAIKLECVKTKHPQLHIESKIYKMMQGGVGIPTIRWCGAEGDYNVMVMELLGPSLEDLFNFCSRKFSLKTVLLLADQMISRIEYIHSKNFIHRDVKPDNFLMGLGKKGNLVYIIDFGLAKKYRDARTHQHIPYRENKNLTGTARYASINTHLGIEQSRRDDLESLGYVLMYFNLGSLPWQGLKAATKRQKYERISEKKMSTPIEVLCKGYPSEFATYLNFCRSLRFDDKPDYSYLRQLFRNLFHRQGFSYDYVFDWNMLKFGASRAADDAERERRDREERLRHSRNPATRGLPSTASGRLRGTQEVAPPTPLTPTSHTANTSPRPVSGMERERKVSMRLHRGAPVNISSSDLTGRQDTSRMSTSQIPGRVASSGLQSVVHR
T2 sequence (P00533 669-1210): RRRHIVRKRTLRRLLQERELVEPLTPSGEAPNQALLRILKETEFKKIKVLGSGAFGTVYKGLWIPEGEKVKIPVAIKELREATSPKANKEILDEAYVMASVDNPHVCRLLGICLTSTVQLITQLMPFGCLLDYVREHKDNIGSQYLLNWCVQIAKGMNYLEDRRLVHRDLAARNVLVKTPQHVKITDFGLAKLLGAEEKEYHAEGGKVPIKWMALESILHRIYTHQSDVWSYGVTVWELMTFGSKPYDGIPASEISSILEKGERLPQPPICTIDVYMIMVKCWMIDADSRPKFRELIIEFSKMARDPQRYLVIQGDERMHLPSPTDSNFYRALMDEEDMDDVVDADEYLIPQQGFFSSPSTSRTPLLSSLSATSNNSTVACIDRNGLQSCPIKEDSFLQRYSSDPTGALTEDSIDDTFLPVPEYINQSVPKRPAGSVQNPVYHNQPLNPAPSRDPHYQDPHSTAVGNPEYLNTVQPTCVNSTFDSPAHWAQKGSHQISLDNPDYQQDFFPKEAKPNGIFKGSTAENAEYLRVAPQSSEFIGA

For the compound `O=C(Nc1cc(-c2[nH]c3cc(F)cnc3c2-c2ccccc2)ccn1)C(CC(F)F)c1ccc(F)cc1` (racemic) [Example 19, 4,4-difluoro-2-(4-fluorophenyl)-N-[4-(6-fluoro-3-phenyl-1H-pyrrolo[3,2-b]pyridin-2-yl)pyridin-2-yl]butanamide], the IC50 at full-length human CSNK1D was 6.92 nM; in assay [1] (setting [2]), > 20000 nM.
Taken in the same sequence, the figures for `O=C(Nc1cc(-c2[nH]c3cccnc3c2-c2ccccc2)ccn1)C(CC(F)F)c1ccc(F)cc1` (racemic) [Example 22, 4,4-difluoro-2-(4-fluorophenyl)-N-[4-(3-phenyl-1H-pyrrolo[3,2-b]pyridin-2-yl)pyridin-2-yl]butanamide] were 3.18 nM and > 20000 nM.
Taken in the same sequence, the figures for `O=C(Nc1cc(-c2[nH]c3cncnc3c2-c2ccccn2)ccn1)C(CC(F)F)c1ccc(F)cc1` (racemic) [Example 13, 4,4-difluoro-2-(4-fluorophenyl)-N-{4-[7-(pyridin-2-yl)-5H-pyrrolo[3,2-d]pyrimidin-6-yl]pyridin-2-yl}butanamide] were 12.3 nM and > 20000 nM.
With `O=C(Nc1cc(-c2[nH]c3nccnc3c2-c2ccccn2)ccn1)C(CC(F)(F)F)c1ccc(F)cc1` (single isomer, unassigned) [Example 121, (2R or S)-4,4,4-trifluoro-2-(4-fluorophenyl)-N-{4-[7-(pyridin-2-yl)-5H-pyrrolo[2,3-b]pyrazin-6-yl]pyridin-2-yl}butanamide], the IC50 at full-length human CSNK1D is 62.9 nM; in assay [1] (setting [3]), > 20000 nM.
For the compound `O=C(Nc1cc(-c2[nH]c3c(OCC4CC4)ncnc3c2-c2ccccn2)ccn1)C(CC(F)F)c1ccc(F)cc1` (single isomer, unassigned) [Example 129, (2R or S)—N-{4-[4-(cyclopropylmethoxy)-7-(pyridin-2-yl)-5H-pyrrolo[3,2-d]pyrimidin-6-yl]pyridin-2-yl}-4,4-difluoro-2-(4-fluorophenyl)butanamide], the IC50 came to 5.94 nM on full-length human CSNK1D and 9500 nM in assay [1] (setting [2]).
Taken in the same sequence, the figures for `O=C(Nc1cc(-c2[nH]c3cccnc3c2-c2cccc(F)n2)ccn1)C(CC(F)F)c1ccc(F)cc1` (racemic) [Example 25, 4,4-difluoro-2-(4-fluorophenyl)-N-{4-[3-(6-fluoropyridin-2-yl)-1H-pyrrolo[3,2-b]pyridin-2-yl]pyridin-2-yl}butanamide] were 7.87 nM and > 20000 nM.
Taken in the same sequence, the figures for `O=C(Nc1cc(-c2[nH]c3c(C4CCCO4)cc(F)nc3c2-c2ccccn2)ccn1)C(CC(F)F)c1ccc(F)cc1` (single isomer, unassigned) [Example 115, (2R or S)-4,4-difluoro-N-(4-{5-fluoro-7-[(2R or S)-oxolan-2-yl]-3-(pyridin-2-yl)-1H-pyrrolo[3,2-b]pyridin-2-yl}pyridin-2-yl)-2-(4-fluorophenyl)butanamide] were 7.02 nM and 19600 nM.
Taken in the same sequence, the figures for `O=C(Nc1cc(-c2[nH]c3nccnc3c2-c2ccccn2)ccn1)C(CC(F)(F)F)c1ccc(F)cc1` (racemic) [Example 119, (2RS)-4,4,4-trifluoro-2-(4-fluorophenyl)-N-{4-[7-(pyridin-2-yl)-5H-pyrrolo[2,3-b]pyrazin-6-yl]pyridin-2-yl}butanamide] were 7.07 nM and > 20000 nM.
Regarding `O=C(Nc1cc(-c2[nH]c3cccnc3c2-c2ccccc2)ccn1)C(CC(F)F)c1ccc(F)cc1` (single isomer, unassigned; (+)) [Example 24, (+)-4,4-difluoro-2-(4-fluorophenyl)-N-[4-(3-phenyl-1H-pyrrolo[3,2-b]pyridin-2-yl)pyridin-2-yl]butanamide], the IC50 on full-length human CSNK1D is 2.48 nM; in assay [1] (setting [3]) it was > 20000 nM.
As for `O=C(Nc1cc(-c2[nH]c3ccc(F)nc3c2-c2cc(F)ccn2)ccn1)C(CC(F)F)c1ccc(F)cc1` (racemic) [Example 95, (2RS)-4,4-difluoro-N-{4-[5-fluoro-3-(4-fluoropyridin-2-yl)-1H-pyrrolo[3,2-b]pyridin-2-yl]pyridin-2-yl}-2-(4-fluorophenyl)butanamide], the IC50 on full-length human CSNK1D is 10.5 nM; in assay [1] (setting [2]), > 20000 nM.
On to `O=C(Nc1cc(-c2[nH]c3c(OCC(F)F)cc(F)nc3c2-c2ccccn2)ccn1)C(CC(F)F)c1ccc(F)cc1` (racemic) [Example 28, (2RS)—N-{4-[7-(2,2-difluoroethoxy)-5-fluoro-3-(pyridin-2-yl)-1H-pyrrolo[3,2-b]pyridin-2-yl]pyridin-2-yl}-4,4-difluoro-2-(4-fluorophenyl)butanamide], for which the IC50 at full-length human CSNK1D was 4 nM; in assay [1] (setting [2]) it was > 20000 nM.
As for `O=C(Nc1cc(-c2[nH]c3c(OCC4CC4)ncnc3c2-c2ccccn2)ccn1)C(CC(F)F)c1ccc(F)cc1` (single isomer, unassigned) [Example 130, (2R or S)—N-{4-[4-(cyclopropylmethoxy)-7-(pyridin-2-yl)-5H-pyrrolo[3,2-d]pyrimidin-6-yl]pyridin-2-yl}-4,4-difluoro-2-(4-fluorophenyl)butanamide], the IC50 on full-length human CSNK1D stood at 55.8 nM; in assay [1] (setting [2]), 6670 nM.
In the case of `COc1cc(F)nc2c(-c3ccccn3)c(-c3ccnc(NC(=O)C(CC(F)F)c4ccc(F)cc4)c3)[nH]c12` (single isomer, unassigned; (-)) [Example 41, (−)-4,4-difluoro-N-{4-[5-fluoro-7-methoxy-3-(pyridin-2-yl)-1H-pyrrolo[3,2-b]pyridin-2-yl]pyridin-2-yl}-2-(4-fluorophenyl)butanamide], the values for the IC50 (at full-length human CSNK1D; in assay [1] (setting [3])) were 4.13 nM and > 20000 nM, respectively.
Taken in the same sequence, the figures for `Cc1cnc2c(-c3ccccn3)c(-c3ccnc(NC(=O)C(CC(F)F)c4ccc(F)cc4)c3)[nH]c2c1` (single isomer, unassigned) [Example 9, 4,4-difluoro-2-(4-fluorophenyl)-N-{4-[6-methyl-3-(pyridin-2-yl)-1H-pyrrolo[3,2-b]pyridin-2-yl]pyridin-2-yl}butanamide] were 32.8 nM and > 20000 nM.
Take `O=C(Nc1cc(-c2[nH]c3cccnc3c2-c2ccccn2)ccn1)C(CC(F)F)c1ccc(F)cc1` (single isomer, unassigned; (+)) [Example 11, (+)-4,4-difluoro-2-(4-fluorophenyl)-N-{4-[3-(pyridin-2-yl)-1H-pyrrolo[3,2-b]pyridin-2-yl]pyridin-2-yl}butanamide]: the IC50 on full-length human CSNK1D is 2.57 nM; in assay [1] (setting [2]) it was > 20000 nM.
